According to patent US20110195910A1, “USE OF TOCOTRIENOL COMPOSITION FOR THE PREVENTION OF CANCER” (DAVOS LIFE SCIENCE PTE. LTD., priority 2008, published 2011):

Key:
Format in all cases: cell-based
PC-3 cells [1] = assay: Spheroid (prostasphere) formation assay, PC-3 cells; conditions: 5 μg/ml, untreated average 21 per well
Procedure: 5.1.7 Spheroid formation assay—Spheroid formation assay was performed with a protocol modified from previous study (Folkins C, p3560). Briefly, cells were first trypsinized, washed with 1× PBS and resuspended in DMEM F12 medium. Two hundred cells were added into each well of a 24-well-plate pre-coated with polyHEMA (Sigma, St. Louis, Mo.). Cells will be grown in DMEM/F12 mem (Invitrogen, Carlsbad, Calif.) supplemented with 4 μg/mL insulin (Sigma, St. Louis, Mo.), B27 (Invitrogen, Carlsbad, Calif.), 20 ng/mL EGF (Sigma, St. Louis, Mo.), and 20 ng/mL basic FGF (Invitrogen, Carlsbad, Calif.). Fresh medium with the above supplements was added every day. γ-T3 was added at indicated time points and the number of spheroids was counted at day 14 of the assay or at the end of the treatment. Each experiment was repeated in triplicates and each data point represented the mean and standard derivation.

PC-3 cells [2] = assay: CSC marker and signalling expression in PC-3 cells (western blotting, flow cytometry, RT-PCR)
Procedure: 5.1.5 Western blotting was carried out as described above under 1.1.5. The membrane was incubated with primary antibodies directed against CD133 (Miltenyi Biotec, Auburn, Calif.), Bcl-2, PARP, cleaved caspase 3, 7, 9 (Cell Signaling, Technology Inc, Beverly, Mass.), CD44 and β-actin (Santa Cruz Biotechnology, Santa Cruz, Calif.). After washing with TBS-T, the membrane was incubated with secondary antibody against either mouse or rabbit IgG and the signals were visualized using ECL plus western blotting system (Amersham, Piscataway, N.J.).
5.1.6 Semi-quantitative RT-PCR—Total RNA was isolated using TRIZOL® reagent (Invitrogen, Carlsbad, Calif.) following the manufacturer's instruction. cDNA was synthesized by using SuperScript First-Strand Synthesis System for RT (Invitrogen, Carlsbad, Calif.) and PCR was carried out with GeneAmp® PCR System 9700 (Applied Biosystems, Foster City, Calif.). The primers sequence and PCR condition for RT-PCR of CD133 were previously described. The amounts of mRNA were quantified relative to GAPDH.
5.1.8 Flow cytometry—Flow cytometry analysis of the CD44 positive cells were performed with procedure known in the art. Briefly, cells were incubated in PBS containing 2% FBS with PE-conjugated anti-human CD44 antibody. Isotype-matched mouse immunoglobulins served as controls. Samples were then analyzed using a FACS Calibur flow cytometer and CellQuest software (BD Biosciences, San Jose, Calif., USA).

G361 cells = assay: Western blotting of epithelial/mesenchymal markers, G361 cells; conditions: G361, 24 hrs
Procedure: 1.1.5 Western blotting—Detailed protocols have been described previously and are known in the art. Briefly, cell lysates were prepared by suspending cell pellets in lysis buffer [50 mmol/l Tris-HCl (pH 8.0), 150 mmol/l NaCl, 1% NP40, 0.5% deoxycholate, 0.1% SDS, 1 mg/ml aprotinin, 1 μg/ml leupeptin and 1 mmol/l phenylmethylsulfonyl fluoride]. For nuclear protein extraction, NucBuster™ protein extraction kit was used. Protein concentration was measured using the DC Protein Assay kit (Bio-Rad, Hercules, Calif.). Equal amount of protein (30 μg) was loaded onto a 10% SDS polyacrylamide gel for electrophoresis and then transferred onto a polyvinylidene difluoride membrane (Amersham, Piscataway, N.J.). The membrane was then incubated with primary antibodies for 1 hr at room temperature against E-cadherin (BD Biosciences, Bedford, Mass.), α-catenin, β-catenin, γ-catenin, Id-1, Id-3, EGFR, phosphor-c-jun, phosphor-ATF2, cleaved PARP, vimentin, α-smooth muscle actin, twist (Santa Cruz Biotechnology, Calif.), phosphor-IkB-alpha (Ser32/36), phosphor-IKK alpha (Seri 80)/IKK beta (Ser181), phosphor-SAPK/JNK (Thr183/Tyr185) G9, SAPK/JNK, NF-kB p65 (5A5) (Cell Signaling Technology Inc, Beverly, Mass.), Snail (Abcam). […] Expression of β-actin and histone H1 were assessed as an internal loading control for total cell lysate and nuclear protein lysate respectively.

In the case of `CC(C)=CCC/C(C)=C/CC/C(C)=C/CCC1(C)CCc2cc(O)c(C)c(C)c2O1` (centres unmarked) [γ-T3, 7,8-dimethyltocotrienol], the prostasphere formation (PC-3 cells [1]) is reported as “no prostasphere”, the “population of CD44+ PC-3 cells (flow cytometry)” value (PC-3 cells [2]; 5 μg/ml, 24 hrs) is reported as “found to decrease” and the “CD133 mRNA level” value (PC-3 cells [2]; 2.5 and 5 μg/ml, 48 and 72 hrs) is reported as “decrease of CD133 mRNA”. For the same compound, the “protein expression of CD44 (CD133 similar)” value (PC-3 cells [2]; PC-3, 2.5 & 5 μg/ml, 24, 48 and 72 hours) was “significantly down regulated”, the “expression of AKT” value (PC-3 cells [2]; low dose, 0 to about 5 μg/ml) was “downregulated” and the “expression of Oct3/4 and Nestin” value (PC-3 cells [2]; low dose, 0 to about 5 μg/ml) was “upregulated”. The “E-cadherin and γ-catenin protein expression” value (G361 cells) was “up-regulated” and the “Snail and mesenchymal markers (vimentin, α-SMA and twist) expression” value (G361 cells) was “down-regulated”.
